Measurements published in paper PMC7956620 (Molecules, 2021).
Where a chain is given by its changes, count along the chain named.

Columns and labels:
[1] = target: T1, 5-HT3A receptor Y91A mutant (Homo sapiens, UniProt P46098, Y86A); assay: two-electrode voltage clamp, Y91A mutant receptor in Xenopus oocytes; assay type: cell-based; settings: 100 µM chanoclavine, read-out: Inhibition Percentage (%)
T1 construct: host or cells: Xenopus laevis oocytes injected with in vitro transcribed mRNA
T1 sequence (P46098 24-478 Y86A): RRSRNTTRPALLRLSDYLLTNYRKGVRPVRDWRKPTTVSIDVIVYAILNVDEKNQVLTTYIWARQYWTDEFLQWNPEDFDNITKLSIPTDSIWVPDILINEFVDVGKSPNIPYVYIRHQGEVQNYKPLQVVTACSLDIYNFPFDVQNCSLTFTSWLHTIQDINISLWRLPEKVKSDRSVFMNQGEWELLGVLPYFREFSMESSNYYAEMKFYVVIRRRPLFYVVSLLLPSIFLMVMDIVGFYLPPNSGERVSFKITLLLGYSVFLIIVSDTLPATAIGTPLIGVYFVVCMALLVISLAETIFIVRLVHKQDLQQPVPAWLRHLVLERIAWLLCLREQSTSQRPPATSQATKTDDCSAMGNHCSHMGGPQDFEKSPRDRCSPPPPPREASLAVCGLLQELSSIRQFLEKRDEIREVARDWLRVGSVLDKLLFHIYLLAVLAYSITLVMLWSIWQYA
Protocol: (§1) The site-directed mutation of one or two amino acids was performed using sense and antisense primers and Pfu polymerase (QuickChange Site-Directed Mutagenesis Kit; Agilent, Santa Clara, CA, USA) and amplified by polymerase chain reaction (PCR) to increase the target domain. After removing the existing methylated cDNA using Dpn Ⅰ, the PCR products were transformed into Escherichia coli strain DH5α. The cDNA of the 5-HT3A receptor was linearized by Xho Ⅰ at the end of the multi-cloning site, followed by transcription using T7 polymerase and a transcription kit (mMESSAGE mMACHINE T7 Transcription Kit; Thermo Fisher Scientific, Waltham, MA, USA). […]
(§2) To isolate oocytes, female Xenopus laevis were put into a container filled with ice and left for about one hour. […] When the Xenopus oocytes were ready for injection, 50 ng of mRNA was injected with a nanoliter injector (Drummond Scientific, Vernon Hills, IL, USA). […]
(§3) The oocytes in which mRNA was expressed during the incubation period allowed for the estimation of channel or receptor properties for observing drug and ligand potential interactions using a two-electrode voltage clamp (OC-725C; Warner Instruments, Hamden, CT, USA) and Digidata (1322A; Molecular Devices, Sunnyvale, CA, USA). […] The voltage and current electrodes were filled with 3 M KCl (0.3–0.7 MΩ) and analyzed at a −80 mV holding potential. […]

[2] = target: T2, 5-HT3A receptor V133A mutant (Homo sapiens, UniProt P46098, V128A); assay: two-electrode voltage clamp, V133A mutant receptor in Xenopus oocytes; assay type: cell-based; settings: 100 µM chanoclavine, read-out: Inhibition Percentage (%)
T2 construct: host or cells: Xenopus laevis oocytes injected with in vitro transcribed mRNA
T2 sequence (P46098 24-478 V128A): T1 sequence (P46098 24-478 Y86A) with A63Y, V105A
Protocol: as §1, §2, §3

[3] = target: T3, 5-HT3A receptor Y153A mutant (Homo sapiens, UniProt P46098, Y148A); assay: two-electrode voltage clamp, Y153A mutant receptor in Xenopus oocytes; assay type: cell-based; settings: 100 µM chanoclavine, read-out: Inhibition Percentage (%)
T3 construct: host or cells: Xenopus laevis oocytes injected with in vitro transcribed mRNA
T3 sequence (P46098 24-478 Y148A): T1 sequence (P46098 24-478 Y86A) with A63Y, Y125A
Protocol: as §1, §2, §3

mice = tested on: mice; parameters: method as in PMID 31052510; settings: mice ref 32; cited from earlier work

CN[C@@H]1Cc2c[nH]c3cccc(c23)[C@H]1/C=C(\C)CO [chanoclavine]
inhibition at 100 µM [1]: 50.2 ± 5.1%
inhibition at 100 µM [2]: 67.2 ± 9.9%
inhibition at 100 µM [3]: 56.9 ± 3.6%
toxicity (gross hematology, blood chemistry, pathology, histology) (mice): low toxicity
